In patent publication US4478834A, “Dihydropyridines and their use in the treatment of asthma” (USV Pharmaceutical Corporation, priority 1983, dated 1984):

Columns and labels:
guinea pig lung = guinea pig lung inhibition
Experimental: The activity of a compound is expressed as % inhibition of net antigen-induced histamine release. In the case of an active compound the concentration of the compound required for 50% inhibition for AIR (I50) is determined.

[1] = system: Cyclic Nucleotide Phosphodiesterase (cNUC-PDE); test: Cyclic Nucleotide Phosphodiesterase (cNUC-PDE) Assay; assay type: biochemical; details: compounds initially tested at 100 μM; enzyme source (dog heart or rat mast cell) not given
Experimental: Cyclic Nucleotide Phosphodiesterase (cNUC-PDE) Assay: CNUC-PDE was measured by a modification of the one-step procedure described by Thompson et al. (1979). The reaction was carried out in 7 ml scintillation vials. The reaction mixture consisted of 5 mM MgCl2., 50 mM tris-(hydroxymethyl)aminomethane buffered to pH 8.0 at 37° C. with hydrochloric acid (Tris-chloride), 1-2×10^5 cpm ^3 H-labeled cyclic nucleotide substrate, appropriate concentration of non-labeled cyclic nucleotide, 25 μg/ml lyophilized Ophiophagus hannah venom and appropriate enzyme for linear reaction conditions. The timed reactions were initiated by the addition of an enzyme, incubated at 37° C. for appropriate times for linear reaction rates, and stopped with the addition of 0.8 ml of 50% (v/v) AG 1×8 (200-400 mesh) ion-exchange resin in 50% (v/v) ethanol-Tris-acetate buffer (pH 8.0). The vials were vortexed and the resin mixture allowed to equilibrate for 15 min at 4° C. Scintillation fluid (4.5 ml) was added and radioactivity quantitated in a liquid scintillation counter.
Dog Heart Enzyme Preparations: Mongrel dogs were overdosed with Nembutal® and their hearts surgically removed. […]
Mast Cell Enzyme Preparations: Peritoneal cells were collected and mast cells purified by a procedure similar to that described by Yurt et al., (1977). […] The cells ([…]) were counted with a haemocytometer. […]

[2] = Blood pressure in spontaneously hypertensive [SHR] rats; assay type: in vivo, rat; details: intraperitoneal (ip) dose of 100 mg/Kg, over 2 hours duration
Experimental: In spontaneously hypertensive [SHR] rats (as described in Laffan, R. J., Patterson, A., Hitch, S. W., Jeunelot, Technique for Prolonged Continuous Recording of Blood Pressures of Unrestricted Rats, Cardiovascular Research, Vol. 6, pp. 319-24, 1972),3,10b-dihydro-2,4-dimethyl-5-oxo-5H[1]benzopyrano[3,4-C]pyridine-1-carboxylic acid ethyl ester (Example 4D) administered intraperitoneal (ip) dose of 100 mg/Kg reduced blood pressure by 17-22% over 2 hours duration.

Row | SMILES | guinea pig lung inhibition (guinea pig lung) [%] | PDE inhibition [1] [%] | reduced blood pressure [2]
1 | CCOC(=O)C1=C(C)NC(C)=C2C(=O)Nc3ccccc3C21 (stereo not drawn) [Example 3C, 3,5,6,10b-Tetrahydro-2,4-dimethyl-5-oxo-benzo[c][2,7]naphthyridine-1-carboxylic acid ethyl ester] | < 50 | < 60 | 
2 | CCOC(=O)C1=C(C)NC(C)=C2C(=O)Oc3ccccc3C12 (stereo not drawn) [Example 4D, 3,10b-Dihydro-2,4-dimethyl-5-oxo-5H[1]benzo-pyrano[3,4-c]pyridine-1-carboxylic acid ethyl ester] |  |  | 17-22%
